Values quoted from earlier work, collected in patent US20250281528A1, “GRAPHENE OXIDE-CATIONIC SILVER NANOCOMPOSITES AND THEIR USE AS BROAD-SPECTRUM ANTIMICROBIAL AGENTS” (priority 2020, published 2025).

Legend:
Details in all cases: literature values, refs in Table 6 footnotes
[1] = tested on: Vibrio cholerae
[2] = tested on: Candida albicans
[3] = tested on: Salmonella typhi
[4] = tested on: Streptococcus pyogenes

O=[N+]([O-])[O-].[Ag+] [AgNO3, Silver Nitrate]
MIC [1]: 70 ^c μg/mL | MIC [2]: 4.9 ^f μg/mL | MIC [3]: 110 ^c μg/mL | MIC [4]: 80 ^c μg/mL
